US20230062100A1, “SUBSTITUTED AMINOQUINOLONES AS DGKALPHA INHIBITORS FOR IMMUNE ACTIVATION” (Bayer Aktiengesellschaft, priority 2019, published 2023)

target: DGKα (Homo sapiens, UniProt P23743); test: Human DGKα kinase activity inhibition assay (ADP-Glo); format: biochemical; settings: in vitro human DGKα kinase activity inhibition assay
Description: Human DGKα inhibitory activity of compounds of the present invention was quantified employing the human DGKα kinase activity assay as described in the following paragraphs. In essence, the enzyme activity was measured by quantification of the adenosine-di-phosphate (ADP) generated as a co-product of the enzyme reaction via the “ADP-Glo™ Kinase Assay” kit from the company Promega. This detection system works as follows: In a first step the ATP not consumed in the kinase reaction is quantitatively converted to cAMP employing an adenylate cyclase (“ADP-Glo-reagent”), then the adenylate cyclase is stopped and the ADP generated in the kinase reaction converted to ATP, which subsequently generates in a luciferase-based reaction a glow-luminescence signal (“Kinase Detection Reagent”). C-terminally FLAG-tagged, recombinant full-length human DGKα (expressed in baculovirus infected insect cells, purified using anti-Flag pulldown and size exclusion chromatography as described below, DGKα_hu_1) was used as enzyme. As substrate for the kinase 1,2-dioleoyl-sn-glycerol, reconstituted in octyl-β-D-glucopyranoside micelles, was used. For the preparation of the micelles, 1 volume of a 16.1 mM solution of 1,2-dioleoyl-sn-glycerol (Avanti, Cat. #O8001-25G) in chloroform was slowly evaporated using a nitrogen stream. Subsequently, 22.55 volumes of a 510 mM solution of octyl-β-D-glucopyranoside (Sigma-Aldrich, Cat. #O8001-10G) in 50 mM MOPS buffer (pH 7.4) were added, and the mixture was sonicated in an ultrasonic bath for 20 s. Then 35 volumes of 50 mM MOPS buffer (pH 7.4) were added to yield a solution of 0.28 mM 1,2 dioleoyl-sn-glycerol and 200 mM octyl-β-D-glucopyranoside, which was aliquoted, flash-frozen in liquid nitrogen, and stored at −20° C. until use. For each experiment, a fresh aliquot was quickly thawed and diluted 24-fold with aqueous assay buffer (described below) containing 95.7 μM adenosine triphosphate (Promega) to yield a 1.67-fold concentrated substrate solution. For the assay 50 nl of a 100-fold concentrated solution of the test compound in dimethyl sulfoxide (DMSO, Sigma) was pipetted into either a white 1536-well or a white low-volume 384-well microtiter plate (both Greiner Bio-One, Frickenhausen, Germany). […] The concentration of DGK a was adjusted depending of the activity of the enzyme lot and was chosen appropriate to have the assay in the linear range, a typical concentration is about 0.1 nM. The reaction was stopped by the addition of 2.5 μl of “ADP-Glo-reagent” (1 to 1.5 diluted with water) and the resulting mixture was incubated at 22° C. for 1 h to convert the ATP not consumed in the kinase reaction completely to cAMP. […] The amount of emitted light was taken as a measure for the amount of ADP generated and thereby for the activity of the DGKα.

DGKα, sequence (P23743 with tags, fused parts or gaps): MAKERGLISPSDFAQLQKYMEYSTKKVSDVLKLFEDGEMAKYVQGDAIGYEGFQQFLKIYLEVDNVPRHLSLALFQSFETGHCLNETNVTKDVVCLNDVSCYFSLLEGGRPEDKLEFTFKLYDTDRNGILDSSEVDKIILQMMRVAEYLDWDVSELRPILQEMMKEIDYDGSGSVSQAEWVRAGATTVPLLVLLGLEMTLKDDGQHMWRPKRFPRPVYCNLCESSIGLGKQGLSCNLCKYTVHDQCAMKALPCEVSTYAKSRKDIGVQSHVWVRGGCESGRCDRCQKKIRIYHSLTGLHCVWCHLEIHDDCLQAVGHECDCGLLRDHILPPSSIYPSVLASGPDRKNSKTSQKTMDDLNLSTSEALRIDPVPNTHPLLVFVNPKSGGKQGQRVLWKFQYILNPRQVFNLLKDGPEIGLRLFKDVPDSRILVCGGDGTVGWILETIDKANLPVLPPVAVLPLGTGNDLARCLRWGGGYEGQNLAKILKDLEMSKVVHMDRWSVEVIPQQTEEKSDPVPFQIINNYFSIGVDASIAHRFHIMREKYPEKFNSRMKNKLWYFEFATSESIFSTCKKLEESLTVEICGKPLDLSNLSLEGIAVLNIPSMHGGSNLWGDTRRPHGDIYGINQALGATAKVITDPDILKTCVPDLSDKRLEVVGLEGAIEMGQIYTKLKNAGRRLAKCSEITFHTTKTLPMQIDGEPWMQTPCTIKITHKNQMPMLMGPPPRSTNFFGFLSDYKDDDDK

SMILES	IC50 [nM]
CN1CCN(c2ccc(OC3CCN(c4c(C#N)c(=O)n(C)c5ccccc45)CC3)cc2)C(=O)C1 [Example 24, 1-methyl-4-{4-[4-(4-methyl-2-oxopiperazin-1-yl)phenoxy]piperidin-1-yl}-2-oxo-1,2-dihydroquinoline-3-carbonitrile]	266
Cn1c(=O)c(C#N)c(N2CCC(Oc3cccc4ocnc34)CC2)c2ccccc21 [Example 27, 4-{4-[(1,3-benzoxazol-4-yl)oxy]piperidin-1-yl}-1-methyl-2-oxo-1,2-dihydroquinoline-3-carbonitrile]	318
Cn1c(=O)c(C#N)c(N2CCC(Oc3cnc(C(F)(F)F)nc3)CC2)c2ccccc21 [Example 28, 1-methyl-2-oxo-4-(4-{[2-(trifluoromethyl)pyrimidin-5-yl]oxy}piperidin-1-yl)-1,2-dihydroquinoline-3-carbonitrile]	521
Cn1c(=O)c(C#N)c(N2CCC(Oc3ccc(N=S(C)(C)=O)cc3)CC2)c2ccccc21 [Example 30, 4-[4-(4-{[dimethyl(oxo)-λ^6-sulfanylidene]amino}phenoxy)piperidin-1-yl]-1-methyl-2-oxo-1,2-dihydroquinoline-3-carbonitrile]	1530
COc1cc(C)ccc1OC1CCN(c2c(C#N)c(=O)n(C)c3ccccc23)CC1 [Example 31, 4-[4-(2-methoxy-4-methylphenoxy)piperidin-1-yl]-1-methyl-2-oxo-1,2-dihydroquinoline-3-carbonitrile]	6.8
Cn1c(=O)c(C#N)c(N2CCC(Oc3ccc(C#N)cc3)CC2)c2ccccc21 [Example 32, 4-[4-(4-cyanophenoxy)piperidin-1-yl]-1-methyl-2-oxo-1,2-dihydroquinoline-3-carbonitrile]	31
Cn1c(=O)c(C#N)c(N2CCC(Oc3ccccc3C#N)CC2)c2ccccc21 [Example 34, 4-[4-(2-cyanophenoxy)piperidin-1-yl]-1-methyl-2-oxo-1,2-dihydroquinoline-3-carbonitrile]	9
Cn1c(=O)c(C#N)c(N2CCC(Oc3ccc(C(N)=O)cc3)CC2)c2ccccc21 [Example 35, 4-{[1-(3-cyano-1-methyl-2-oxo-1,2-dihydroquinolin-4-yl)piperidin-4-yl]oxy}benzamide]	646
Cn1c(=O)c(C#N)c(N2CCC(Oc3ccc(C4CC4)cc3)CC2)c2ccccc21 [Example 37, 4-[4-(4-cyclopropylphenoxy)piperidin-1-yl]-1-methyl-2-oxo-1,2-dihydroquinoline-3-carbonitrile]	10
Cn1c(=O)c(C#N)c(N2CCC(C)(Oc3ccc([N+](=O)[O-])cc3)CC2)c2ccccc21 [Example 40, 1-methyl-4-[4-methyl-4-(4-nitrophenoxy)piperidin-1-yl]-2-oxo-1,2-dihydroquinoline-3-carbonitrile]	11
Cn1c(=O)c(C#N)c(N2CCC(C)(Oc3ccc(N)cc3)CC2)c2ccccc21 [Example 41, 4-[4-(4-aminophenoxy)-4-methylpiperidin-1-yl]-1-methyl-2-oxo-1,2-dihydroquinoline-3-carbonitrile]	173
Cn1c(=O)c(C#N)c(N2CCC(C)(Oc3ccc(Br)cc3)CC2)c2ccccc21 [Example 42, 4-[4-(4-bromophenoxy)-4-methylpiperidin-1-yl]-1-methyl-2-oxo-1,2-dihydroquinoline-3-carbonitrile]	27
COCCOc1ccc(OC2CCN(c3c(C#N)c(=O)n(C)c4ccccc34)CC2)cc1 [Example 44, 4-{4-[4-(2-methoxyethoxy)phenoxy]piperidin-1-yl}-1-methyl-2-oxo-1,2-dihydroquinoline-3-carbonitrile]	45
CN(C)c1ccc(OC2CCN(c3c(C#N)c(=O)n(C)c4ccccc34)CC2)cc1 [Example 45, 4-{4-[4-(dimethylamino)phenoxy]piperidin-1-yl}-1-methyl-2-oxo-1,2-dihydroquinoline-3-carbonitrile]	31
COc1ccc(OC2CCN(c3c(C#N)c(=O)n(C)c4ccccc34)CC2)cc1 [Example 46, 4-[4-(4-methoxyphenoxy)piperidin-1-yl]-1-methyl-2-oxo-1,2-dihydroquinoline-3-carbonitrile]	32
Cn1c(=O)c(C(N)=O)c(N2CCC(Oc3cccc(Cl)c3)CC2)c2ccccc21 [Example 49, 4-[4-(3-chlorophenoxy)piperidin-1-yl]-1-methyl-2-oxo-1,2-dihydroquinoline-3-carboxamide]	1.7
Cn1c(=O)c(C(N)=O)c(N2CCC(Oc3ccc(Cl)cc3)CC2)c2ccccc21 [Example 50, 4-[4-(4-chlorophenoxy)piperidin-1-yl]-1-methyl-2-oxo-1,2-dihydroquinoline-3-carboxamide]	3.1
Cn1c(=O)c(C(N)=O)c(N2CCC(Oc3ccc(OC(F)F)cc3)CC2)c2ccccc21 [Example 52, 4-{4-[4-(difluoromethoxy)phenoxy]piperidin-1-yl}-1-methyl-2-oxo-1,2-dihydroquinoline-3-carboxamide]	3.8
Cn1c(=O)c(C#N)c(N2CCC(Sc3ccccc3)CC2)c2ccccc21 [Example 53, 1-methyl-2-oxo-4-[4-(phenylsulfanyl)piperidin-1-yl]-1,2-dihydroquinoline-3-carbonitrile]	1.1

More lines, in order of falling IC50, values ahead:

IC50 [nM]	SMILES
654	Cn1c(=O)c(C#N)c(N2CCC(Oc3ccc4cnoc4c3)CC2)c2ccccc21 [Example 29, 4-{4-[(1,2-benzoxazol-6-yl)oxy]piperidin-1-yl}-1-methyl-2-oxo-1,2-dihydroquinoline-3-carbonitrile]
415	CN(C)C(=O)c1ccc(OC2CCN(c3c(C#N)c(=O)n(C)c4ccccc34)CC2)cc1 [Example 26, 4-{[1-(3-cyano-1-methyl-2-oxo-1,2-dihydroquinolin-4-yl)piperidin-4-yl]oxy}-N,N-dimethylbenzamide]
339	Cn1c(=O)c(C#N)c(N2CCC(Oc3ccc(S(C)(=O)=O)cc3)CC2)c2ccccc21 [Example 43, 4-{4-[4-(methanesulfonyl)phenoxy]piperidin-1-yl}-1-methyl-2-oxo-1,2-dihydroquinoline-3-carbonitrile]
283	Cn1ccn(-c2ccc(OC3CCN(c4c(C#N)c(=O)n(C)c5ccccc45)CC3)cc2)c1=O [Example 25, 1-methyl-4-{4-[4-(3-methyl-2-oxo-2,3-dihydro-1H-imidazol-1-yl)phenoxy]piperidin-1-yl}-2-oxo-1,2-dihydroquinoline-3-carbonitrile]
164	Cn1c(=O)c(C#N)c(N2CCC(Oc3ccccc3C(F)(F)F)CC2)c2ccccc21 [Example 36, 1-methyl-2-oxo-4-{4-[2-(trifluoromethyl)phenoxy]piperidin-1-yl}-1,2-dihydroquinoline-3-carbonitrile]
18	Cn1c(=O)c(C#N)c(N2CCC(Oc3cccc(OC(F)(F)F)c3)CC2)c2ccccc21 [Example 38, 1-methyl-2-oxo-4-{4-[3-(trifluoromethoxy)phenoxy]piperidin-1-yl}-1,2-dihydroquinoline-3-carbonitrile]
13	Cn1c(=O)c(C#N)c(N2CCC(Oc3ccccc3F)CC2)c2ccccc21 [Example 33, 4-[4-(2-fluorophenoxy)piperidin-1-yl]-1-methyl-2-oxo-1,2-dihydroquinoline-3-carbonitrile]
8.6	CC(C)Oc1ccc(OC2CCN(c3c(C#N)c(=O)n(C)c4ccccc34)CC2)cc1 [Example 47, 1-methyl-2-oxo-4-(4-{4-[(propan-2-yl)oxy]phenoxy}piperidin-1-yl)-1,2-dihydroquinoline-3-carbonitrile]
6.1	CCOC(=O)c1ccc(OC2CCN(c3c(C(N)=O)c(=O)n(C)c4ccccc34)CC2)cc1 [Example 51, ethyl 4-{[1-(3-carbamoyl-1-methyl-2-oxo-1,2-dihydroquinolin-4-yl)piperidin-4-yl]oxy}benzoate]
4	Cn1c(=O)c(C#N)c(N2CCC(Oc3ccc(OC(F)F)cc3)CC2)c2ccccc21 [Example 39, 4-{4-[4-(difluoromethoxy)phenoxy]piperidin-1-yl}-1-methyl-2-oxo-1,2-dihydroquinoline-3-carbonitrile]
0.9	Cn1c(=O)c(C(N)=O)c(N2CCC(Oc3ccc(OC(F)(F)F)cc3)CC2)c2ccccc21 [Example 48, 1-methyl-2-oxo-4-{4-[4-(trifluoromethoxy)phenoxy]piperidin-1-yl}-1,2-dihydroquinoline-3-carboxamide]
